Active and inactive are the calls of the source. The rule behind the calls is not given here.
biological target: Mu-type opioid receptor (Homo sapiens) + Delta-type opioid receptor (Homo sapiens) (UniProt P35372+P41143); assay: agonists of MOR-DOR heterodimerization, dose response, cell-based, luminescence (AID 588407); conditions: cells;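 note: potency of agonists raising the heterodimer signal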
Sequence (P35372 whole entry, looked up): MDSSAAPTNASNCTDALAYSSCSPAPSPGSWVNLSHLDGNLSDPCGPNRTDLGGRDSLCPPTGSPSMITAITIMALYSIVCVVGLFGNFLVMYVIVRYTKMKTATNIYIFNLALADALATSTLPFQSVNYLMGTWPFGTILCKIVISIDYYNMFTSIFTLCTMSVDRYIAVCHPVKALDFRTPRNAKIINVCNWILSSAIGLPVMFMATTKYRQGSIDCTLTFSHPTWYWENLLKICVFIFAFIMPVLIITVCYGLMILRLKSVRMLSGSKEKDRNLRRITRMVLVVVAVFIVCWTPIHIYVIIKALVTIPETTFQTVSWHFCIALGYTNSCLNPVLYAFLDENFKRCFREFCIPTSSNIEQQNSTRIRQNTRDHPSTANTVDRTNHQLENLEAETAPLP
Sequence (P41143 whole entry, looked up): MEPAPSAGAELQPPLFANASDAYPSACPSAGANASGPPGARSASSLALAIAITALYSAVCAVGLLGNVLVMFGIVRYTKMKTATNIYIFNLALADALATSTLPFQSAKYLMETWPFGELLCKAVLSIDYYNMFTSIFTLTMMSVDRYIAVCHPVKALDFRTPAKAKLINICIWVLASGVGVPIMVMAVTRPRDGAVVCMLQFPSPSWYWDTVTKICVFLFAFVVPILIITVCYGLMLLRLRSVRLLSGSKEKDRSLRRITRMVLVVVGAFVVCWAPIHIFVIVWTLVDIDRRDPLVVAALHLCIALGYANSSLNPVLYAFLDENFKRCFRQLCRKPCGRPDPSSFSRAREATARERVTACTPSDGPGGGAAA

Row | SMILES | EC50
1 | CN(C)CCCN(C(=O)c1ccc(S(=O)(=O)N2CCc3ccccc3C2)cc1)c1nc2ccc(F)cc2s1 | 1.27 µM
2 | COC(=O)C1=C(C)N(CCCC(=O)O)C(=O)NC1c1ccccc1OS(=O)(=O)c1ccc([N+](=O)[O-])cc1 (stereo unspecified) | 5.73 µM
3 | COc1ccccc1CN1CCN(C(CC(C)C)c2nnnn2Cc2cccs2)CC1 (stereo unspecified) | inactive
4 | Cc1ccccc1N(CC(=O)N/N=C/c1ccc(F)cc1)C(=O)c1ccccc1 | inactive
5 | CCN(CC)Cc1cc(Nc2c3ccccc3nc3c4ccccc4n(C)c23)cc(CN(CC)CC)c1O | 1.78 µM
6 | Cc1cc(=O)oc2cc(NC(=O)C3COc4ccccc4O3)ccc12 (stereo unspecified) | inactive
7 | CCOC(=O)C1(CC2CCCCO2)CCN(Cc2cc(F)ccc2-n2cccn2)CC1 (stereo unspecified) | 8.74 µM
8 | COC(=O)CCCNC(=O)c1ccc(OC2CCN(CCc3ccccc3)CC2)cc1 | inactive
9 | O=C(NCCc1ccc(Cl)cc1)C1CCC(CNc2nc(=S)[nH]c3ccccc23)CC1 (stereo unspecified) | > 92.5 µM (inactive)
10 | COc1ccc(-n2c3c(cc(C(=O)NNc4ccccc4C)c2=O)C(=O)CC(C)(C)C3)cc1 | 2.55 µM
11 | CCOC(=O)C1(c2ccccc2)CCN(CCC(=O)Nc2cccc(Br)c2)CC1 | 8.78 µM
12 | OCC1(CCc2ccccc2)CCN(Cc2cccn2-c2cccnc2)CC1 | 4.69 µM
13 | COC(=O)c1cc2c(n1S(=O)(=O)c1ccc(C)cc1)C(=O)C(=O)c1[nH]cc(C(=O)OCc3ccccc3)c1-2 | 2.56 µM
14 | CN(C)CCCN(C(=O)c1ccc(S(=O)(=O)N2CCc3ccccc3C2)cc1)c1nc2c(F)cc(F)cc2s1 | 0.856 µM
15 | CC(=O)NC(CC(=O)NCC(c1ccco1)N(C)C)c1ccccc1 (stereo unspecified) | 1.06 µM
16 | CCC(=O)C(CCN1CCOCC1)(c1ccccc1)c1ccccc1 | 0.982 µM
17 | CN(C)C(CNC(=O)c1cnc(Cl)c(Cl)c1)c1ccccc1 (stereo unspecified) | 0.555 µM
18 | Cc1c(CCOC(=O)c2ccccc2)sc[n+]1CC(=O)c1ccc(Br)cc1 | inactive
19 | CC1(NC(=O)CC(c2ccccc2)(c2ccccc2)c2ccccc2)CCN(CCCc2ccccc2)C1=O (stereo unspecified) | 0.895 µM
20 | Cc1nc2nc(C)n(CCN3CCOCC3)c(=O)c2c(-c2cccc([N+](=O)[O-])c2)c1C(=O)CCCCCCCCCCN1CCC(c2ccccc2)(c2ccccc2)CC1 | inactive
21 | Cc1ccccc1OCC(O)Cn1c(=N)n(Cc2ccccc2)c2ccccc21 (stereo unspecified) | inactive
22 | OCC1(CC2CCCCO2)CCN(Cc2ccccc2-c2ccco2)CC1 (stereo unspecified) | 4.76 µM
23 | CCOC(=O)C1(CCOc2ccccc2)CCN(Cc2cccn2-c2cccnc2)CC1 | 1.67 µM
24 | CN(C)C(CNC(=O)c1cc2ccccc2o1)c1ccco1 (stereo unspecified) | > 92.5 µM (inactive)

Row | SMILES | EC50
25 | Cc1ccc(C)c(-n2cc(CNCCCn3cccn3)c(-c3ccccc3)n2)c1 | 0.654 µM
26 | O=C(N[C@H]1C/C=C\C[C@H](CC(=O)N(CCO)Cc2ccccc2)C(=O)N[C@H](Cc2c[nH]c3ccccc23)COC1=O)OCC1c2ccccc2-c2ccccc21 | inactive
27 | CCOC(=O)C1(CCOC)CCN(Cc2ccccc2-c2ccco2)CC1 | 3.18 µM
28 | CN(C)CCCN(C(=O)c1ccc(Br)s1)c1nc2cc3c(cc2s1)OCCO3 | inactive
29 | OCC1(CCc2ccccc2)CCN(Cc2ccccc2Cl)CC1 | 9.21 µM
30 | CN(C)CCCN(C(=O)c1ccc(S(=O)(=O)N(C)Cc2ccccc2)cc1)c1nc2c(F)cccc2s1 | 4.97 µM
31 | CN(C)C(CNC(=O)C1CC(=O)N(Cc2ccccc2)C1)c1ccccc1 (stereo unspecified) | inactive
32 | Cc1ccc2cc(C(c3nnnn3Cc3ccccc3)N3CCc4ccccc43)c(=O)[nH]c2c1 (stereo unspecified) | inactive
33 | Cn1c(-c2c(N)n(CCc3ccccc3)c3nc4ccccc4nc23)nc2ccccc21 | 3.15 µM
34 | CC(=O)CSc1ccc(-c2nc3cc(C)c(C)cc3[nH]2)cn1 | inactive
35 | CCOc1ccc(S(=O)(=O)Nc2cccc(C(=O)NCC(c3ccccc3)N(C)C)c2)cc1 (stereo unspecified) | 7.76 µM
36 | CC1[C@H]2Cc3ccc(O)cc3[C@]1(C)CCN2C (stereo partly specified) | inactive
37 | CCNS(=O)(=O)c1ccc(NC(=O)Nc2ccc3c(c2)OCO3)cc1 | 9.34 µM
38 | Nc1nonc1C(=O)NCCNCc1c(OCc2ccccc2F)ccc2ccccc12 | inactive
39 | CCOC(=O)c1c(C)[nH]c(C(=O)OC/C(O)=C(\C#N)c2nc3ccccc3[nH]2)c1C | > 92.5 µM (inactive)
40 | COc1ccc(CN2CCc3c([nH]c4ccccc34)C2)c(OC)c1C | inactive
41 | CCOC(=O)C1(CC2CCCCO2)CCN(Cc2nc(-c3cccs3)oc2C)CC1 (stereo unspecified) | inactive
42 | CN(C)C(CNC(=S)Nc1cccc(Cl)c1)c1ccccc1 (stereo unspecified) | 0.375 µM
43 | CCN(c1nc(N)c(C(=O)N=C(N)N)nc1Cl)C(C)C | 9.57 µM
44 | Brc1ccc(NC2=Nc3ccccc3CC2)cc1 | inactive
45 | CN(C)C(CNC(=O)c1ccc(C(F)(F)F)cc1)c1ccco1 (stereo unspecified) | 7.74 µM
46 | CN(C(=O)Cc1ccc(Cl)c(Cl)c1)C(CN1CCCC1)c1cccc(OCC(=O)O)c1 (stereo unspecified) | inactive
47 | CCOC(=O)C1(CCOc2ccccc2)CCN(Cc2ccc(C)s2)CC1 | inactive
48 | COC(=O)C(Cc1cccc(C)n1)(c1ccccc1)c1ccccc1 | 3.93 µM

Row | SMILES | EC50
49 | Cc1ccccc1NC(=S)NCC(c1cccnc1)N(C)C (stereo unspecified) | 1.54 µM
50 | CC[C@@H](C)[C@@H]1CN([C@@H](CN2CCC[C@H]2CN2C(N)=NC[C@H]2C(C)C)C(C)C)C(=N)N1CCc1ccc(Cl)c(Cl)c1 | 2.36 µM
51 | COc1ccccc1NC(=O)c1sc2nc(C)cc(C)c2c1N | > 92.5 µM (inactive)
52 | CCc1ccc(NC(=O)Nc2ccc3c(c2)N(C)C(=O)CS3)cc1 | 9.42 µM
53 | COc1ccc(C2Nc3ccccc3C(=O)N2c2ccc(F)cc2)cc1CSc1ccccn1 (stereo unspecified) | inactive
54 | CN(C)c1ccc(C(CNC(=O)Cc2cccc3ccccc23)N(C)C)cc1 (stereo unspecified) | inactive
55 | CN1CCN(c2ccc(NC(=O)c3ccc(-c4ccc(Br)cc4)o3)cc2)CC1 | 1.92 µM
56 | CN1CCN(c2ccc(NC(=O)c3ccc(-c4cccc([N+](=O)[O-])c4)o3)cc2)CC1 | inactive
57 | O=c1c2ccc(Cl)cc2[nH]c(=S)n1Cc1cccnc1 | 8.6 µM
58 | CC(=O)Nc1ccc(CN2CCCC(C(=O)c3cccc(C(F)(F)F)c3)C2)cc1 (stereo unspecified) | 9.35 µM
59 | CN1CCN(Cc2nc3ccccc3c(=O)n2Cc2nc(-c3ccc4ccccc4c3)cs2)CC1 | > 10.3 µM (inactive)
60 | Cc1cccc(OCCC(=O)NCC(c2ccccc2)N(C)C)c1 (stereo unspecified) | inactive
61 | OCC1(CCc2ccccc2)CCN(Cc2cc(F)ccc2-n2cccn2)CC1 | 4.67 µM
62 | O=C(C=P(c1ccccc1)(c1ccccc1)c1ccccc1)c1ccccc1-c1ccccc1C(=O)C=P(c1ccccc1)(c1ccccc1)c1ccccc1 | > 92.5 µM (inactive)
63 | Oc1ccc(Oc2ccc3c(C(F)(F)F)cc(C(F)(F)F)nc3n2)cc1 | inactive
64 | Cc1ccc2nc(N(CCCN(C)C)C(=O)c3ccc(S(=O)(=O)N4CCc5ccccc5C4)cc3)sc2c1 | 8.9 µM
65 | C/C(=N/Nc1ccnc2cc(Cl)ccc12)c1ccc(N)cc1 | inactive
66 | CCOC(=O)C1(CC2CCCCO2)CCN(Cc2c(C)cc(C)cc2-n2cccn2)CC1 (stereo unspecified) | 0.53 µM
67 | COc1ccc(C(CNC(=O)C(Cc2ccccc2)NC(N)=O)N(C)C)cc1 (stereo unspecified) | inactive
68 | CCOC(=O)C1(CCc2ccccc2)CCN(Cc2ccco2)CC1 | inactive
69 | Cc1nc(N2CCN(c3ccccn3)CC2)c2c(C)c(C(=O)N3CCN(c4ccc(F)cc4)CC3)sc2n1 | 2.2 µM
70 | CN(C)C(CNC(=S)Nc1ccccc1Cl)c1cccnc1 (stereo unspecified) | 0.524 µM
71 | CCN(Cc1ccccc1)S(=O)(=O)c1ccc(C(=O)N(CCCN(C)C)c2nc3c(C)c(C)ccc3s2)cc1 | inactive

From PubChem BioAssay AID588407 (The Scripps Research Institute Molecular Screening Center, 2011)
